US4598068A, “Benzylphenyl osides, method of preparation and use therefor” (Societe de Recheres Industrielles, priority 1983, dated 1986)

Experiments:
[1] = Acute toxicity, intraperitoneal administration to mice; type: in vivo; conditions: mouse, in vivo, ip, read-out: LD50 (lethal dose causing the death of half of the animals)
Excerpt: (§1) The acute toxicity was studied by intraperitoneal administration to mice. It is expressed in the form of LD50 (lethal dose causing the death of half of the animals) or LD0 (maximum non-lethal dose).

[2] = test system: cholesterol level in the plasma; experiment: Hypocholesterolemic activity: plasma cholesterol level in rats; type: in vivo, male Wistar rats; conditions: Rattus norvegicus, po, T=0 to T=+24 hours, not corrected for the variation in the control group, read-out: % Variation in the cholesterol level, variation in the subject treated; for change in vivo at 65 mg/kg: 65 mg/kg p.o. at T=0 and T=+7 hours; for change in vivo at 100 mg/kg: 100 mg/kg p.o. at T=0 and T=+7 hours
Method: Hypocholesterolemic activity
The hypocholesterolemic activity was studied on male Wistar rats (weighing about 200 to 220 g). Groups of 10 rats per product and per dose are fasted the day before the experiment. The products to be tested are administered in gum water (30 g/liter of gum arabic) at times T=0 and T=+7 hours. The cholesterol level in the plasma is measured at times T=0 and T=+24 hours and the percentage variation between T=0 and T=+24 hours is then calculated for the treated groups and the control groups.

[3] = Antithrombotic effects (statement only); conditions: in words
mice = experiment: Acute toxicity, intraperitoneal administration to mice; type: in vivo; conditions: i.p.
Excerpt: as §1

Structure (SMILES)	LD0 (maximum non-lethal dose) (mice) [mg/kg]	change in vivo at 100 mg/kg [2] [%]	further results
O=[N+]([O-])c1ccc(Cc2ccc(O[C@@H]3OC[C@@H](O)[C@H](O)[C@H]3O)cc2)cc1 [Example 1, 4-(4-nitrobenzyl)phenyl β-D-xylopyranoside]			LD50 [1]: 650 mg/kg; change in vivo at 65 mg/kg [2]: -39%; antithrombotic effects [3]: beneficial antithrombotic effects
O=[N+]([O-])c1cccc(Cc2ccc(O[C@@H]3OC[C@@H](O)[C@H](O)[C@H]3O)cc2)c1 [Example 2, 4-(3-nitrobenzyl)phenyl β-D-xylopyranoside]	> 800	-27	
CC(=O)N[C@H]1[C@H](Oc2ccc(Cc3ccc([N+](=O)[O-])cc3)cc2)O[C@H](CO)[C@@H](O)[C@@H]1O [Example 3]	> 800	-42	
O=[N+]([O-])c1ccc(Cc2ccc(O[C@@H]3O[C@H](CO)[C@H](O)[C@H](O)[C@H]3O)cc2)cc1 [Example 4]	≥ 900	-33	
C[C@@H]1O[C@@H](Oc2ccc(Cc3ccc([N+](=O)[O-])cc3)cc2)[C@H](O)[C@H](O)[C@H]1O [Example 5]		-7	
O=[N+]([O-])c1ccc(Cc2ccc(O[C@@H]3OC[C@H](O)[C@H](O)[C@H]3O)cc2)cc1 [Example 6]	≥ 900	-29	
O[C@@H]1[C@@H](O)[C@H](Oc2ccc(Cc3ccccc3Cl)cc2)OC[C@H]1O [Example 7]	> 800	-20	
O[C@@H]1[C@@H](O)[C@H](Oc2ccc(Cc3cccc(Cl)c3)cc2)OC[C@H]1O [Example 8]		-37	LD50 [1]: ≥ 800 mg/kg
O[C@@H]1[C@@H](O)[C@H](Oc2ccc(Cc3ccc(Cl)cc3)cc2)OC[C@H]1O [Example 9, 4-(4-chlorobenzyl)phenyl β-D-xylopyranoside]	> 800	-37	
O[C@@H]1[C@@H](O)[C@H](Oc2ccc(Cc3ccc(Br)cc3)cc2)OC[C@H]1O [Example 10]	≥ 900	-39	
Cc1ccc(Cc2ccc(O[C@@H]3OC[C@@H](O)[C@H](O)[C@H]3O)cc2)cc1 [Example 11]	> 800	-19	
Cc1ccccc1Cc1ccc(O[C@@H]2OC[C@@H](O)[C@H](O)[C@H]2O)cc1 [Example 12]	> 800	-28	
Cc1cccc(Cc2ccc(O[C@@H]3OC[C@@H](O)[C@H](O)[C@H]3O)cc2)c1 [Example 13]	≥ 800	-24	
COc1ccc(Cc2ccc(O[C@@H]3OC[C@@H](O)[C@H](O)[C@H]3O)cc2)cc1 [Example 15]	> 800	-47	
COc1cccc(Cc2ccc(O[C@@H]3OC[C@@H](O)[C@H](O)[C@H]3O)cc2)c1 [Example 17]	> 1000	-50	
O[C@@H]1[C@@H](O)[C@H](Oc2ccc(Cc3ccc(C(F)(F)F)cc3)cc2)OC[C@H]1O [Example 18]		-17	LD50 [1]: > 900 mg/kg
Nc1ccc(Cc2ccc(O[C@@H]3OC[C@@H](O)[C@H](O)[C@H]3O)cc2)cc1 [Example 19]	> 800	-29	
CN(C)c1ccc(Cc2ccc(O[C@@H]3OC[C@@H](O)[C@H](O)[C@H]3O)cc2)cc1 [Example 20]		-22	

Structure (SMILES)	LD0 (maximum non-lethal dose) (mice) [mg/kg]	change in vivo at 100 mg/kg [2] [%]	further results
Nc1cccc(Cc2ccc(O[C@@H]3OC[C@@H](O)[C@H](O)[C@H]3O)cc2)c1 [Example 23]	≥ 900	-28	
O[C@@H]1[C@@H](O)[C@H](Oc2ccc(Cc3ccc(Cl)cc3Cl)cc2)OC[C@H]1O [Example 26]		-8	LD50 [1]: 640 mg/kg
Cc1cc(C)c(Cc2ccc(O[C@@H]3OC[C@@H](O)[C@H](O)[C@H]3O)cc2)c(C)c1 [Example 27]	≥ 800	-13	
Oc1ccc(Cc2ccc(O[C@@H]3OC[C@@H](O)[C@H](O)[C@H]3O)cc2)cc1 [Example 29]	≥ 800	-37	
Cc1ccc(Cc2cc(C)c(OC3OC[C@@H](O)[C@H](O)[C@H]3O)c(C)c2)cc1 (stereo partly drawn) [Example 30]		-12	LD50 [1]: 630 mg/kg
O[C@@H]1[C@@H](O)[C@H](Oc2ccc(Cc3ccccc3)cc2)OC[C@H]1O [Example 33, 4-(benzyl)phenyl β-D-xylopyranoside]	> 800	-38	
O=[N+]([O-])c1cc(Cc2ccccc2)ccc1O[C@@H]1OC[C@@H](O)[C@H](O)[C@H]1O [Example 34]			LD50 [1]: 250 mg/kg; change in vivo at 25 mg/kg ([2]; 25 mg/kg p.o. at T=0 and T=+7 hours): -15%
CC(=O)O[C@@H]1[C@@H](OC(C)=O)[C@H](Oc2ccc(Cc3c(C)cc(C)cc3C)cc2)OC[C@H]1OC(C)=O [Example 62]	> 900	-18	
O=[N+]([O-])c1ccc(Cc2ccc(O[C@@H]3O[C@H](CO)[C@@H](O)[C@H](O)[C@H]3O)cc2)cc1 [Example 71]	≥ 900		change in vivo at 65 mg/kg [2]: -21%
O[C@@H]1[C@@H](O)[C@H](Oc2cccc(Cc3ccc(Cl)cc3)c2)OC[C@H]1O [Example 75]		-43	
O[C@@H]1[C@@H](O)[C@H](Oc2cccc(Cc3ccccc3)c2)OC[C@H]1O [Example 77]		-25	
Cc1cc(Cc2ccccc2)ccc1O[C@@H]1OC[C@@H](O)[C@H](O)[C@H]1O [Example 79]			LD50 [1]: 320 mg/kg; change in vivo at 30 mg/kg ([2]; 30 mg/kg p.o. at T=0 and T=+7 hours): -37%
Cc1cc(Cc2ccc([N+](=O)[O-])cc2)cc(C)c1OC1OC[C@@H](O)[C@H](O)[C@H]1O (stereo partly drawn) [Example 82]	> 800		
CSc1ccc(Cc2ccc(O[C@@H]3OC[C@@H](O)[C@H](O)[C@H]3O)cc2)cc1 [Example 85, 4-(4-methylthiobenzyl)phenyl β-D-xylopyranoside]	> 800	-23	
CS(=O)(=O)c1ccc(Cc2ccc(O[C@@H]3OC[C@@H](O)[C@H](O)[C@H]3O)cc2)cc1 [Example 89, 4-(4-mesylbenzyl)phenyl β-D-xylopyranoside]			LD50 [1]: 450 mg/kg; change in vivo at 45 mg/kg ([2]; 45 mg/kg p.o. at T=0 and T=+7 hours): -30%
CS(=O)(=O)c1ccc(Cc2ccc(O[C@@H]3O[C@H](CO)[C@@H](O)[C@H](O)[C@H]3O)cc2)cc1 [Example 91, 4-(4-mesylbenzyl)phenyl β-D-glucopyranoside]	> 800	-40	
CC(=O)N[C@H]1[C@H](Oc2ccc(Cc3ccc(S(C)(=O)=O)cc3)cc2)O[C@H](CO)[C@@H](O)[C@@H]1O [Example 93, 4-(4-mesylbenzyl)phenyl β-D-N-acetylglucosaminopyranoside]	> 800	-36	
